This passage reports EC50 results from US20240166652A1, “MODULATORS OF THE INTEGRATED STRESS PATHWAY” (Calico Life Sciences LLC, priority 2017, published 2024).

In the experiment the test system is ATF4 luciferase reporter in HEK293T cells. The experiment can be described thus: ATF4-Luc assay (ATF4 luciferase reporter, tunicamycin-treated HEK293T cells). Type of experiment: cell-based, human. The following applies: HEK293T cells carrying the ATF4 luciferase reporter, 1 μg/mL tunicamycin, 7 hours. On the procedure:
In order to test exemplary compounds of the invention in a cellular context, a stable VWMD cell line was first constructed. The ATF4 reporter was prepared by fusing the human full-length ATF4 5′-UTR (NCBI Accession No. BC022088.2) in front of the firefly luciferase (FLuc) coding sequence lacking the initiator methionine as described in Sidrauski et al (eLife 2013). The construct was used to produce recombinant retroviruses using standard methods and the resulting viral supernatant was used to transduce HEK293T cells, which were then subsequently selected with puromycin to generate a stable cell line.
HEK293T cells carrying the ATF4 luciferase reporter were plated on polylysine coated 384-well plates (Greiner Bio-one) at 30,000 cells per well. Cells were treated the next day with 1 μg/mL tunicamycin and 200 nM of a compound of Formula (I) for 7 hours. Luminescence was measured using One Glo (Promega) as specified by the manufacturer. Cells were maintained in DMEM with L-glutamine supplemented with 10% heat-inactivated FBS (Gibco) and Antibiotic-Antimycotic solution (Gibco).
Table 2 below summarizes the EC50 data obtained using the ATF4-Luc assay for exemplary compounds of the invention.
(Reporter assays use an easily measured gene product as a stand-in for the process of interest.)

For the compound `O=C(COc1ccc(Cl)c(F)c1)N[C@]12CC[C@](NC(=O)COc3ccc(Cl)c(F)c3)(C1)[C@H](O)C2` (racemic) [Compound 579, rac-N,N′-[(1S,2R,4R)-2-hydroxybicyclo[2.2.1]heptane-1,4-diyl]bis[2-(4-chloro-3-fluorophenoxy)acetamide]], the EC50 (Homo sapiens, HEK-293T) is 10 to 50 nM.

Turning to `O=C(COc1ccc(Cl)c(F)c1)NC12CCC(NC(=O)COc3ccc(Cl)c(F)c3)(C[C@H]1O)[C@@H](O)C2` (racemic) [Compound 557, rac-N,N′-[(2R,5S)-2,5-dihydroxybicyclo[2.2.2]octane-1,4-diyl]bis[2-(4-chloro-3-fluorophenoxy)acetamide]], under “Homo sapiens, HEK-293T”, the EC50 is less than 10 nM.

As for `CS(=O)(=O)c1cc(OCC(=O)NC23CCC(NC(=O)COc4ccc(Cl)c(F)c4)(CC2)[C@@H](O)C3)ccc1F` [Compound 826, 2-(4-chloro-3-fluorophenoxy)-N-[(2S)-4-{2-[4-fluoro-3-(methanesulfonyl)phenoxy]acetamido}-2-hydroxybicyclo[2.2.2]octan-1-yl]acetamide], where the note is “Homo sapiens, HEK-293T”, the EC50 fell in the range of 50 to 250 nM.

`O=C(COc1ccc(Cl)c(F)c1)NC12CC(NC(=O)COc3cnc(F)c(Cl)c3)(C1)C2` [Compound 240, 2-(4-chloro-3-fluorophenoxy)-N-(3-{2-[(5-chloro-6-fluoropyridin-3-yl)oxy]acetamido}bicyclo[1.1.1]pentan-1-yl)acetamide]: the EC50 (Homo sapiens, HEK-293T) is less than 10 nM.

For the compound `O=C(COc1ccc(Cl)cc1)NC12CC(NC(=O)COc3cccc(F)c3)(C1)C2` [Compound 119, 2-(4-chlorophenoxy)-N-{3-[2-(3-fluorophenoxy)acetamido]-bicyclo[1.1.1]pentan-1-yl}acetamide], where the note is “Homo sapiens, HEK-293T”, the EC50 was 50 to 250 nM.

Regarding `O=C(COc1ccc(Cl)cc1)NC12CCC(NC(=O)COc3ccc(OC(F)(F)F)c(F)c3)(CC1)CC2` [Compound 741, 2-(4-chlorophenoxy)-N-(4-{2-[3-fluoro-4-(trifluoromethoxy)phenoxy]acetamido}bicyclo[2.2.2]octan-1-yl)acetamide], the EC50 (Homo sapiens, HEK-293T) was 10 to 50 nM.

Take `Cc1cc(OCC(=O)NC23CC(NC(=O)COc4ccc(Cl)c(F)c4)(C2)C3)cnc1F` [Compound 244, 2-(4-chloro-3-fluorophenoxy)-N-(3-{2-[(6-fluoro-5-methylpyridin-3-yl)oxy]acetamido}bicyclo[1.1.1]pentan-1-yl)acetamide]: for the setting “Homo sapiens, HEK-293T”, the EC50 was less than 10 nM.

`O=C(COc1ccc(F)c(F)c1)NC12CCC(NC(=O)COc3ccc(F)c(F)c3)(CC1)[C@@H](O)C2` [Compound 683, N,N′-[(2S)-2-hydroxybicyclo[2.2.2]octane-1,4-diyl]bis[2-(3,4-difluorophenoxy)acetamide]]: the EC50 was less than 10 nM.

Take `CCOc1ccc(OCC(=O)NC23CCC(NC(=O)COc4ccc(Cl)c(F)c4)(CC2)C[C@@H]3O)cc1` [Compound 508, 2-(4-chloro-3-fluorophenoxy)-N-{(3S)-4-[2-(4-ethoxyphenoxy)acetamido]-3-hydroxybicyclo[2.2.2]octan-1-yl}acetamide]: where the note is “Homo sapiens, HEK-293T”, the EC50 was 10 to 50 nM.

Consider `O=C(CO)Nc1cc(Cl)ccc1OCC(=O)NC12CC(NC(=O)COc3ccc(Cl)c(F)c3)(C1)C2` [Compound 789, 2-(4-chloro-3-fluorophenoxy)-N-(3-{2-[4-chloro-2-(2-hydroxyacetamido)phenoxy]acetamido}bicyclo[1.1.1]pentan-1-yl)acetamide], for which the EC50 (Homo sapiens, HEK-293T) lay in the range of 50 to 250 nM.

For the compound `O=C(COCCc1ccc(Cl)cc1)NC12CC(NC(=O)COc3ccc(Cl)c(F)c3)(C1)C2` [Compound 135, 2-(4-chloro-3-fluorophenoxy)-N-(3-{2-[2-(4-chlorophenyl)ethoxy]acetamido}-bicyclo[1.1.1]pentan-1-yl)acetamide], where the note is “Homo sapiens, HEK-293T”, the EC50 was 250 to 500 nM.

For `O=C(COc1ccc(Cl)c(F)c1)NC12CCC(NC(=O)COc3ccc(F)cc3)(CC1)C(O)C2` (stereo not drawn) [Compound 345, 2-(4-chloro-3-fluorophenoxy)-N-{4-[2-(4-fluorophenoxy)acetamido]-3-hydroxybicyclo[2.2.2]octan-1-yl}acetamide], the EC50 (Homo sapiens, HEK-293T) is less than 10 nM.

Usually EC50 stands for the concentration needed to bring the measured effect to its halfway point.
